# Measurements as given in patent US20240226105A1 (priority 2021, published 2024).
# Entries after “also recorded” stand apart in the source; their conditions may differ. Like-named read-outs stand apart in the source and are kept apart here.
# Legend:
# [1] = assay type: physicochemical
# [2] = cited from earlier work
# [3] = assay type: physicochemical; remark: listed apart in the source
# [4] = assay type: physicochemical; conditions: pH 4
# [5] = assay type: physicochemical; remark: listed apart in the source
# [6] = assay type: physicochemical; remark: listed apart in the source
# [7] = assay type: physicochemical; remark: listed apart in the source
# [8] = assay type: physicochemical; remark: listed apart in the source
smiles,measurement,setting,value
"N=C1NC(O)C2C3OC4(O)O[C@@H](C(O)C2(N1)[C@@H]4O)C3(O)CO (stereo partly shown) [TTX, octahydro-12-(hydroxymethyl)-2-imino-5,9:7,10a-dimethano-10aH-(1,3)dioxocino(6,5-d)-pyrimidine-4,7,10,11,12-pentanol]",concentration at which TTX was found to be solubilized,[1],300 µg/mL
same,pKa,[2],9.4
same,solubility of TTX in pure organic solvents,[3],below 30 μg/ml
same,concentration up to which TTX was sufficiently soluble,[4],≥ 300 µg/mL
same,concentration at which TTX was found to be solubilized,[5],300 µg/mL
same,TTX solubility (observation),[6],Deposits in the vial; also recorded: Partially solubilized; also recorded: Almost fully solubilized
same,concentration up to which TTX was soluble,[7],about 150 ug/mL
same,solubility of TTX in a combination of organic solvents and acids,[8],below 30 μg/ml
same,TTX Solubility,[8]; pH 3.7,Not soluble
same,TTX Solubility,[8]; pH 4.6,Not soluble
